Source: patent US10059723B2 (BIOMARIN PHARMACEUTICAL INC., priority 2011, dated 2018)

What was measured:
[1] = system: GM 15850 (lymphoblastoid cells line) cells; test: In-cell deacetylase inhibition assay (DAC assay); type: cell-based; details: Homo sapiens, GM15850; GM 15850 cells, 4 h incubation; read-out: 850 DAC (in-cell deacetylase inhibition IC50)
Procedure: Compound dilutions were made in 100% DMSO followed by parallel dilution in media with 2% DMSO. 10 μl of the compound dilutions were added to the cells to achieve the desired concentrations. The final concentration of DMSO in each well was 0.2%. The cells were incubated for 4 h at 37° C. with 5% CO2. After incubation, the cells were centrifuged down and the supernatant was removed. […] The reaction was stopped after 30 min incubation by addition of 50 μL developer (6 mg/mL trypsin in HDAC assay buffer). The reaction was allowed to develop for 30 min at room temperature and the fluorescence signal was detected using a fluorometer (Spectramax M2, Molecular Devices, Sunnyvale, Calif.) with excitation and emission wavelengths of 360 nm and 470 nm respectively. The data was fitted to a sigmoidal dose response equation with variable slope in GraphPad Prism 5.0 (GraphPad Software, La Jolla, Calif.) to determine IC50. Bottom and top of the curve were fixed to the average fluorescence response of control wells with no cells and cells but no compound respectively.

[2] = Brain penetration studies;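 note: compound levels in brain and plasma quantified by LC/MS/MS, sampled from pre-dose up to 4 h after dosing, three mice per dose and time point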; type: in vivo; details: C57/BL6/J, mouse, brain and plasma; mice, s.c. 5 or 50 mg/kg or i.v. 5 mg/kg; read-out: BPR (brain/plasma ratio, Cmax(brain)/Cmax(plasma))
Procedure: Test compounds were prepared at either 0.5 mg/ml or 5 mg/ml in 30% hydroxypropyl-β-cyclodextrin, 100 mM sodium acetate pH 5.5, 5% DMSO. C57/BL6/J mice were dosed s.c. at 5 mg/kg or 50 mg/kg, or i.v. at 5 mg/kg. Animals were euthanized at pre-dose, 5, 15, 30 min, 1, 2 and 4 hours post-dose and plasma and brain obtained. Three animals per dose per time points were used. The levels of compound in the plasma and brain were determined by standard LC/MS/MS methods. Brain/plasma ratio (BPR) was calculated as the ratio of the Cmax(brain)/Cmax(plasma).

HCT116 cells = test: Cell proliferation assay; type: cell-based; details: Homo sapiens, HCT-116, 72 h, read-out: Hct-116 (anti-proliferation IC50)
Procedure: HCT116 cells (5000 cells/well) in 80 μL McCoy's 5A medium containing 10% v/v FBS, 1% v/v penicillin/streptomycin and 1% v/v L-glutamine were incubated in 96-well plates with compounds at various concentrations for 72 h at 37° C. in a 5% CO2 atmosphere. The compound dilutions were made in 100% DMSO followed by parallel dilutions in media. The final concentration of DMSO in each well was 0.05%. After 72 h, 20 μL of Cell titer 96 aqueous one solution (Promega Corporation, Madison, Wis.) were added to the cells and the plate was incubated at 37° C. for another 4 h. The absorbance at 490 nm was then recorded on a 96-well plate reader (Spectramax M2, Molecular Devices, Sunnyvale, Calif.). Data analysis was performed in Microsoft Excel (Microsoft Corp, Redmond, Wash.).

HDAC1 = target: T1, HDAC1 (Homo sapiens, UniProt Q13547); test: HDAC activity inhibition assay, HDAC1; type: biochemical; details: 2 hours pre-incubation, Fluor-de-Lys substrate 10 μM
T1 construct: purchased BPS Bioscience 50051
T1 sequence (Q13547 whole entry): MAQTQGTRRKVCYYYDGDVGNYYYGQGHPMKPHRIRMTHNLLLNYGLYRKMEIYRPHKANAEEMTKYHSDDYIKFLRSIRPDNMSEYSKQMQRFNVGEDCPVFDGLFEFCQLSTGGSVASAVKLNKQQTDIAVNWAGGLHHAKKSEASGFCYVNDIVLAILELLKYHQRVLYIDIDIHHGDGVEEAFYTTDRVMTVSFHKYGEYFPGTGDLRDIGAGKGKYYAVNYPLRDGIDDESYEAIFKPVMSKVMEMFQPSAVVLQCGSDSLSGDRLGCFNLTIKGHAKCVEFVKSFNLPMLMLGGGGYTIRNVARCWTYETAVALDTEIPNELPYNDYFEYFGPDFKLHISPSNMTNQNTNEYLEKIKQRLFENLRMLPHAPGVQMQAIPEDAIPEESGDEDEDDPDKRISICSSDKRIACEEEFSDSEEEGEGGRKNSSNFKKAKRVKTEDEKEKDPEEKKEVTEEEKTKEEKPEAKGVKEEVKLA
Procedure: The HDAC activity inhibition assay was performed as follows to determine the ability of a test compound to inhibit HDAC enzymatic activity. […] Following pre-incubation, Fluor-de-Lys™ substrate (Enzo Life Sciences, Plymouth Meeting, Pa., BML-KI104-0050) was added to a final concentration of 10 μM and plates were further incubated for 30 minutes at room temperature. […] IC50 values were calculated by using a sigmoidal dose-response (variable slope) equation in GraphPad Prism® 5 for Windows (GraphPad Software, La Jolla, Calif.).

C57BL/6J male mice = test: Long term memory for object recognition; type: in vivo; details: s.c. 3, 10, 30 mg/kg
Procedure: C57BL/6J male mice were handled 1-2 min for 5 days and were habituated to the experimental apparatus 5 min a day for 4 consecutive days in the absence of objects. […] 24-h later mice were tested for memory retention (5 min) using the object recognition memory task (ORM), in which a familiar object was replaced with a novel one. All training and testing trials were videotaped and analyzed by individuals blind to the treatment condition and the genotype of subjects. A mouse was scored as exploring an object when its head was oriented toward the object within a distance of 1 cm or when the nose was touching the object. The relative exploration time was recorded and expressed by a discrimination index [DI=(tnovel−tfamiliar)/(tnovel+tfamiliar)×100].

Structure (SMILES)	IC50 [1] [µM]	Kp [2]	IC50 (HCT116 cells) [µM]	IC50 (HDAC1) [µM]	dose dependence of the effect on long-term memory (C57BL/6J male mice)
Cc1nc(/C=C/C(=O)Nc2ccccc2N)cs1 [A1]	> 20	0.5 to 1	–	–	–
Cn1cc(/C=C/C(=O)Nc2ccccc2N)cn1 [A2]	10 to 20	0.5 to 1	> 20	–	–
Cc1ncc(/C=C/C(=O)Nc2ccccc2N)s1 [A3]	> 20	–	–	–	–
Cc1cc(/C=C/C(=O)Nc2ccccc2N)on1 [A5]	–	0.2 to 0.5	–	–	–
Nc1ccccc1NC(=O)/C=C/c1cnc2ccccn12 [A6, (E)-N-(2-aminophenyl)-3-(imidazo[1,2-a]pyridin-3-yl)acrylamide]	> 20	0.1 to 0.2	10 to 20	–	–
Cn1ccc(/C=C/C(=O)Nc2ccccc2N)n1 [A7]	> 20	0.5 to 1	–	–	–
Nc1ccccc1NC(=O)/C=C/c1cc2ccccn2n1 [A8]	10 to 20	0.5 to 1	–	–	–
Nc1ccccc1NC(=O)/C=C/c1cn2ccccc2n1 [A9]	> 20	–	–	–	–
Nc1ccccc1NC(=O)/C=C/c1cn2ccnc2s1 [A10]	10 to 20	0.2 to 0.5	–	–	–
Nc1ccccc1NC(=O)/C=C/c1cnn(-c2ccccc2)c1 [A11]	–	> 1	–	–	–
Cn1cnc(/C=C/C(=O)Nc2ccccc2N)c1 [A12]	> 20	–	–	–	–
Nc1ccccc1NC(=O)/C=C/c1cnn(CC2CC2)c1 [B1]	10 to 20	–	–	–	–
Nc1ccccc1NC(=O)/C=C/c1cnn(C/C=C/c2ccc(F)cc2)c1 [B2]	5 to 10	–	–	–	–
Nc1ccccc1NC(=O)/C=C/c1cnn(CCOc2cc(F)cc(F)c2)c1 [B3, (E)-N-(2-aminophenyl)-3-(1-(2-(3,5-difluorophenoxy)ethyl)-1H-pyrazol-4-yl)acrylamide]	1 to 5	0.2 to 0.5	–	–	–
Nc1ccccc1NC(=O)/C=C/c1cnn(CCOc2ccc(C(F)(F)F)cc2)c1 [B4]	10 to 20	0.2 to 0.5	–	–	–
Nc1ccccc1NC(=O)/C=C/c1cnn(CCOc2cc(F)cc(Cl)c2)c1 [B5, (E)-N-(2-aminophenyl)-3-(1-(2-(3-chloro-5-fluorophenoxy)ethyl)-1H-pyrazol-4-yl)acrylamide]	5 to 10	0.2 to 0.5	–	–	–
Nc1ccccc1NC(=O)/C=C/c1cnn(CCOc2ccc(F)cc2)c1 [B6]	5 to 10	–	–	–	–
CCn1cc(/C=C/C(=O)Nc2ccccc2N)cn1 [C1]	> 20	0.5 to 1	–	–	–
Cn1cc(/C=C/C(=O)Nc2ccc(F)cc2N)cn1 [C2]	–	–	–	> 20	–
Cn1cc(/C=C/C(=O)Nc2cc(F)ccc2N)cn1 [C3]	> 20	–	–	–	–
Nc1cc(F)ccc1NC(=O)/C=C/c1cnn(C/C=C/c2ccccc2)c1 [D2, (E)-N-(2-amino-4-fluorophenyl)-3-(1-cinnamyl-1H-pyrazol-4-yl)acrylamide]	> 20	0.2 to 0.5	> 20	–	no effect of dose
Nc1ccccc1NC(=O)/C=C/c1cnn(CCOc2ccccc2)c1 [D3, (E)-N-(2-aminophenyl)-3-(1-(2-phenoxyethyl)-1H-pyrazol-4-yl)acrylamide]	1 to 5	0.2 to 0.5	< 5	–	–
Nc1ccccc1NC(=O)/C=C/c1cnn(Cc2ccccc2)c1 [D4]	5 to 10	0.2 to 0.5	> 20	–	–

Structure (SMILES)	IC50 [1] [µM]	Kp [2]	IC50 (HCT116 cells) [µM]	IC50 (HDAC1) [µM]	dose dependence of the effect on long-term memory (C57BL/6J male mice)
Nc1ccccc1NC(=O)/C=C/c1cnn(Cc2ccc(F)cc2)c1 [D5]	5 to 10	0.1 to 0.2	> 20	–	–
Cc1cccc(Cn2cc(/C=C/C(=O)Nc3ccccc3N)cn2)n1 [D6]	10 to 20	< 0.1	> 20	–	–
Nc1ccccc1NC(=O)/C=C/c1cnn(CCc2ccccc2)c1 [D7]	5 to 10	0.5 to 1	< 5	–	–
Nc1ccccc1NC(=O)/C=C/c1cnn(CCCc2ccccc2)c1 [D8]	1 to 5	0.2 to 0.5	< 5	–	–
Nc1ccccc1NC(=O)/C=C/c1cnn(CCCCc2ccccc2)c1 [D9]	1 to 5	0.5 to 1	5 to 10	–	–
Nc1ccccc1NC(=O)/C=C/c1cnn(CC(F)(F)c2ccccc2)c1 [D10]	5 to 10	0.5 to 1	> 20	–	–
Nc1ccccc1NC(=O)/C=C/c1cnn(CC/C=C/c2ccccc2)c1 [D11]	1 to 5	> 1	–	–	–
CN(CCCn1cc(/C=C/C(=O)Nc2ccccc2N)cn1)c1ccccc1 [D12]	1 to 5	0.5 to 1	–	–	–
Nc1ccccc1NC(=O)/C=C/c1cnn(CCc2c[nH]c3ccccc23)c1 [D13]	1 to 5	< 0.1	–	–	–
Nc1ccccc1NC(=O)/C=C/c1cnn(CCOCc2ccccc2)c1 [D14]	5 to 10	–	–	–	–
Nc1ccccc1NC(=O)/C=C/c1cnn(CCCOc2ccccc2)c1 [D15]	1 to 5	–	–	–	–
Nc1cc(F)ccc1NC(=O)/C=C/c1cnn(CCOc2ccccc2)c1 [D16]	10 to 20	–	–	–	–
CCOCc1cn2cc(/C=C/C(=O)Nc3ccccc3N)sc2n1 [E1, (E)-N-(2-aminophenyl)-3-(6-(ethoxymethyl)imidazo[2,1-b]thiazol-2-yl)acrylamide]	> 20	–	–	–	–
Nc1ccccc1NC(=O)/C=C/c1csc(CC=Cc2ccccc2)n1 [E2, (E)-N-(2-aminophenyl)-3-(2-cinnamylthiazol-4-yl)acrylamide]	10 to 20	> 1	> 20	–	–
Nc1ccccc1NC(=O)c1ccc(C=C2CCN(C(=O)OCc3ccccc3)CC2)cc1 [F1]	> 20	< 0.1	–	–	–
Nc1ccccc1NC(=O)c1ccc(C=C2CCN(Cc3cccnc3)CC2)cc1 [F2]	10 to 20	> 1	< 5	–	–
Nc1ccccc1NC(=O)c1ccc(C=C2CN(Cc3ccc4cc[nH]c4c3)C2)cc1 [F3]	1 to 5	0.2 to 0.5	< 5	–	–
Nc1ccccc1NC(=O)c1ccc(CC2CN(Cc3ccc4cc[nH]c4c3)C2)cc1 [F4]	1 to 5	0.5 to 1	< 5	–	–
Nc1ccccc1NC(=O)c1ccc(C=C2CN(Cc3ccc4cc[nH]c4c3)C2)c(Cl)c1 [F5, 4-((1-((1H-Indol-6-yl)methyl)azetidin-3-ylidene)methyl)-N-(2-aminophenyl)-3-chlorobenzamide]	5 to 10	–	–	–	–
Nc1ccccc1NC(=O)c1ccc(C=C2CN(Cc3cccnc3)C2)c(Cl)c1 [F6]	10 to 20	–	–	–	–
CN1CCC(Cn2cc(/C=C/C(=O)Nc3ccccc3N)cn2)CC1 [G1, (E)-N-(2-aminophenyl)-3-(1-((1-methylpiperidin-4-yl)methyl)-1H-pyrazol-4-yl)acrylamide]	–	–	> 20	–	–
Cc1nn(C/C=C/c2ccccc2)c(C)c1/C=C/C(=O)Nc1ccccc1N [G2, (E)-N-(2-aminophenyl)-3-(1-cinnamyl-3,5-dimethyl-1H-pyrazol-4-yl)acrylamide]	–	–	> 20	–	–
Cc1ccc(C(=O)NCCCCCC(=O)Nc2ccc(F)cc2N)cc1 [RGFP 136, reference compound]	–	–	–	–	Dose dependent effects
